Assay results from US10682317B2 (ZOGENIX INTERNATIONAL LIMITED, priority 2017, dated 2020).
≈ marks a conversion by molar mass, not a printed value. Where “and” joins values, the source holds several entries; their conditions need not be identical. Equal values may be shown once. Where a name gives a salt, the structure may show the parent alone. Read-outs that look alike come from different tables or passages of the source.

What was measured:
[1] = test system: food intake / carbohydrate craving; conditions: cited from earlier work
[2] = Paraben preservative degradation (hydrolysis); format: physicochemical; conditions: pH 6
Description: The pH of the drug product formulation was optimized to minimize the preservative degradation.
Like methylparaben, ethylparaben degrades in solution by hydrolysis. The rate increases at higher pH. The pH of the drug product formulation was optimized to minimize the preservative degradation while maintaining adequate solubility, and no significant increase in the preservatives degradation product has been observed in long-term stability studies.

[3] = target: T1, vesicular glutamate transporter, VGLUT2 (Homo sapiens, UniProt Q9P2U8); conditions: concentrations expected during the ketogenic diet; cited from earlier work
T1 sequence (Q9P2U8 1-582): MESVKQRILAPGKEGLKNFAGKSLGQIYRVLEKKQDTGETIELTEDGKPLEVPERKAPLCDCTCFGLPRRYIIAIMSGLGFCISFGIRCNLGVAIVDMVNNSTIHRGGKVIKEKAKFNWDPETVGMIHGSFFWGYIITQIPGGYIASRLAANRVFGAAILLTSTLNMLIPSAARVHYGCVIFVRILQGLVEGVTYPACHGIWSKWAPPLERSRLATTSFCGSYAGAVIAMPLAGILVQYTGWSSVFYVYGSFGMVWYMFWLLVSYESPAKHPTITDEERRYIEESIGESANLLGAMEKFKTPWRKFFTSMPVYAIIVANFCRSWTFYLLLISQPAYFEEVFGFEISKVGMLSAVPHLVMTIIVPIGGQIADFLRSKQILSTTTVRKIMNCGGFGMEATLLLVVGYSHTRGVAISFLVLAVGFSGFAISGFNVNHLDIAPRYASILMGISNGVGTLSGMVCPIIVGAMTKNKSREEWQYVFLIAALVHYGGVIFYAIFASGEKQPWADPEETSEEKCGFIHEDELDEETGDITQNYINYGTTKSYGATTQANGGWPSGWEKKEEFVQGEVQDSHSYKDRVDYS

[4] = cited from earlier work
[5] = Solid state stability and polymorph screening; format: physicochemical
[6] = Aqueous solubility of the drug substance; conditions: aqueous solution
[7] = Particle size of drug substance batches; format: physicochemical
Description: Fenfluramine hydrochloride drug substance is non-micronized. The range of particle size parameters obtained from five GMP batches (two clinical batches manufactured by Onyx, and three registration batches manufactured by Aptuit) is listed in Table 1.

[8] = Buffer system selection: stability of pH prototypes; format: physicochemical; conditions: pH range of 4.5 to 6.5, citrate or citrate-phosphate buffer prototypes
Experimental: A pH range of 4.5 to 6.5 was investigated during formulation development studies. Various prototypes were prepared with either citrate buffer or citrate-phosphate buffer, depending on target pH. […] Based on initial stability data, a target pH of 5.0 (range: 4.5-5.5) was selected because it minimized the preservatives degradation at long-term and accelerated stability conditions without causing precipitation in product stored at 2-8° C. The buffer components in the drug product formulation are tripotassium citrate and citric acid. Potassium citrate was used instead of sodium citrate to avoid common ion effect with the paraben sodium salts, which may have contributed to precipitation in prototypes containing sodium citrate.

[9] = pH 6.8
[10] = test system: food intake / carbohydrate craving; test: Anorectic effect, food intake and carbohydrate craving; format: in vivo, human; conditions: surprisingly low dose, compared to 60-120 mg/day for obesity
Experimental: (§1) The overall anorectic effect of dexfenfluramine is greater than that of […] in experimental animals (Garratini et al. 1988) and humans (Goodall et al. 1992). […] Put differently, a preferred dose is not more than about 30 mg/day, and less than about 1 to about 0.01 mg/kg/day.

seizures [11] = conditions: cited from earlier work
[12] = test system: cardiac fibrosis and pulmonary hypertension; conditions: marketed use for obesity; cited from earlier work
seizures [13] = test: Treatment of seizures in epilepsy patients; format: in vivo, human
Description: Clemens, in Epilepsy Research (1988) 2:340-343 reported a study on a child suffering pattern sensitivity-induced seizures that were resistant to anticonvulsive treatment.
This is confirmed, for example, in the article by Ceulemans et al., Epilepsia (2012) 53(7):1131-1139, the contents of which are incorporated herein.
as §1

[14] = clinical and registration batches 1-5, hydrochloride

In the case of `CCN[C@@H](C)Cc1cccc(C(F)(F)F)c1` (racemic) [Dexfenfluramine], the carbohydrate craving ([1]; adults, 30 mg/day) is given as “reduction in carbohydrate craving”, the “suppression of food intake” value ([1]; dose of 30 mg) is given as “suppressed food intake to the same degree as fenfluramine 60 mg” and the “anorectic potency vs racemic mixture fenfluramine” value ([1]; group of 16 human subjects) is given as “twice the anorectic potency”.
With `COC(=O)c1ccc(O)cc1.[Na]` [Methylparaben sodium, sodium methyl p-hydroxybenzoate] the stability against hydrolysis [2] was “acceptable stability below pH 6”.
For `CC(=O)CC(=O)O` [acetoacetate], the “glutamate transport by VGLUT2” value [3] is listed as “inhibited”.
In the case of `CCOC(=O)c1ccc(O)cc1` [ethylparaben, ethyl 4-hydroxybenzoic acid], the “solubility of the free acid in water” value ([4]; 20° C.) is listed as 0.07%, the “solubility of the free acid in water” value ([4]; 25° C.) is listed as 0.08% and the solubility [4] is listed as 0.8 mg/mL (≈ 4.81 mM).
For `CCNC(C)Cc1cccc(C(F)(F)F)c1` (stereo not shown) [fenfluramine hydrochloride], the polymorphs observed ([5]; polymorph screening study, accelerated and long-term stability studies) was “no other polymorphs have been observed”, the solid state stability ([5]; solid state) was “chemically and physically stable in the solid state” and the solubility ([6]; 25 °C, pH 1.7, simulated gastric fluid) was ~25 mg/mL. For the same compound, the solubility ([6]; 25 °C, pH 6.7, aqueous buffer) was > 50 mg/mL, the solubility ([6]; 37 °C, aqueous buffer) was 54 to 96 mg/mL and the D50 [7, 14] was 6.99 μm and 6.79 μm and 8.92 μm and 8.20 μm and 6.16 μm. For the same compound, the D90 [7, 14] was 23.01 μm and 26.25 μm and 32.08 μm and 27.04 μm and 18.96 μm, the “median particle size (D50)” value ([7]; experimental batch) was 60 μm and the “ninetieth percentile (D90)” value ([7]; experimental batch) was 250 μm. For the same compound, the “time needed for complete dissolution in the formulation vehicle” value ([7]; experimental batch vs micronized portions of the same batch) was “no difference was observed in the time needed for complete dissolution”, the “stability over pH range” value [8] was “stable over the entire range of pH” and the “time for which the solution is stable” value [9] was “at least 6 months”.
In the case of `CCNC(C)Cc1cccc(C(F)(F)F)c1` (stereo not shown) [fenfluramine, 3-trifluoromethyl-N-ethylamphetamine], the “appetite and craving for carbohydrates” value [10] is listed as “effective in reducing appetite and craving for carbohydrates”, the effect on seizures (seizures [11]; child with pattern sensitivity-induced seizures resistant to anticonvulsive treatment) is listed as “successfully terminated these self-induced seizures” and the number of seizures (seizures [11]; children with refractory epilepsy, 0.5 to 1 mg/kg/day) is listed as “reduction in the number of seizures”. For the same compound, the response of seizures (seizures [11]; four cases of self-induced photosensitive seizures) was “responded to treatment”, the therapeutic benefit (seizures [11]; patients with intractable epilepsy) was “appeared to be of therapeutic benefit” and the “adverse effects associated with use” value [12] was “associated with the onset of cardiac fibrosis and pulmonary hypertension”. The effect on seizures (seizures [13]; patients with Dravet syndrome, Lennox-Gastaut syndrome, or Doose syndrome) was “reduce or eliminate seizures” and the “efficacy of low doses on seizures” value (seizures [13]; surprisingly low doses, Dravet, Lennox-Gastaut or Doose syndrome patients) was “efficacious”.
